Each structure is given as a SMILES string.

One experiment concerns the target T1, human TPH1 (Homo sapiens, UniProt P17752).
T1 sequence (P17752 1-444): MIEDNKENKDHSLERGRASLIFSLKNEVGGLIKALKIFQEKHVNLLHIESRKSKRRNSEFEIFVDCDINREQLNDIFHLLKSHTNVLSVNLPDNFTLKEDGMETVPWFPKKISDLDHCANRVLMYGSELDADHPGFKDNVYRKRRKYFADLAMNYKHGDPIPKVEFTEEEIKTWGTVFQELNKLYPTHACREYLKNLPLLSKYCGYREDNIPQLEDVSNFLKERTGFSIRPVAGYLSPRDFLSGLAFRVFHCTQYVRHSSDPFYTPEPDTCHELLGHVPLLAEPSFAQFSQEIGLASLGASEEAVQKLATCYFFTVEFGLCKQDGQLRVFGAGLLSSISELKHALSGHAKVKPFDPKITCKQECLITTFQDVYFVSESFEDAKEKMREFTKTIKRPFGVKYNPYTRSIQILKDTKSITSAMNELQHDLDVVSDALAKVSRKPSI
Kind of experiment: biochemical.
Conditions: not given
The method, boiled down: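 Inhibition is derived from 5-hydroxy-L-tryptophan fluorescence (540 nm emission, 300 nm excitation) after perchloric acid stop, relative to DMSO vehicle. Recombinant full-length human enzyme (40-80 nM) reacts with 40 μM tryptophan plus 100 μM methyltetrahydropterin, pH 7.6 Tris/DTT/catalase, 15° C, 60 min.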
For the compound `CN(C)C(=O)c1ccc(OC2(C(=O)N3CCc4nc5ccccn5c4C3c3ccc(Cl)cc3F)CC2)c(Cl)n1` (stereo not shown) [Example 1.4.15, 6-chloro-5-(1-(1-(4-chloro-2-fluorophenyl)-1,2,3,4-tetrahydroimidazo[1,2-a:5,4-c′]dipyridine-2-carbonyl)cyclopropoxy)-N,N-dimethylpicolinamide], the IC50 stood at 323 nM. Same read-out and setting: for `O=C(NC1CC1)c1ccc(OCC(=O)N2CCc3nc4ccccn4c3C2c2ccc(Cl)cc2F)c(C2CC2)n1` (stereo not shown) [Example 1.4.13, 5-(2-(1-(4-chloro-2-fluorophenyl)-3,4-dihydroimidazo[1,2-a:5,4-c′]dipyridin-2(1H)-yl)-2-oxoethoxy)-N,6-dicyclopropylpicolinamide] the value was 36 nM; for `COc1ccc([C@@H]2c3c(nc4cc(Cl)ccn34)CCN2C(=O)COc2ccc(N3CCOCC3)cc2Cl)c(F)c1` [Example 2.3.4, 1-((1R)-7-chloro-1-(2-fluoro-4-methoxyphenyl)-3,10a-dihydroimidazo[1,2-a:5,4-c′]dipyridin-2(1H)-yl)-2-(2-chloro-4-morpholinophenoxy)ethan-1-one], 12 nM; for `COc1ccc(C2c3c(nc4cc(C(F)(F)F)ccn34)CCN2C(=O)COc2ccc3ccccc3c2)c(F)c1` (stereo not shown) [Example 3.3.1, 1-(1-(2-fluoro-4-methoxyphenyl)-7-(trifluoromethyl)-3,4-dihydroimidazo[1,2-a:5,4-c′]dipyridin-2(1H)-yl)-2-(naphthalen-2-yloxy)ethan-1-one], 5 nM. The same measure, in the same setting: the result for `Cc1noc(C)c1C1c2c(nc3cc(C(F)(F)F)ccn23)CCN1C(=O)COc1ccc(CN2CCOCC2)cc1Cl` (stereo not shown) [Example 3.51.2, 2-(2-chloro-4-(morpholinomethyl)phenoxy)-1-(1-(3,5-dimethylisoxazol-4-yl)-7-(trifluoromethyl)-3,4-dihydroimidazo[1,2-a:5,4-c′]dipyridin-2(1H)-yl)ethan-1-one] reads 217 nM; that for `COc1ccc(C2c3c(nc4cc(C(F)(F)F)ccn34)CCN2C(=O)COc2cccnc2Br)cc1OC` (stereo not shown) [Example 3.1.17, 2-((2-bromopyridin-3-yl)oxy)-1-(1-(3,4-dimethoxyphenyl)-7-(trifluoromethyl)-3,4-dihydroimidazo[1,2-a:5,4-c′]dipyridin-2(1H)-yl)ethan-1-one], 20 nM. The compound `COc1ccc(C2c3c(nc4ccc(F)cn34)CCN2C(=O)COc2ccc3ccccc3c2)cc1OC` (stereo not shown) [Example 11.1.1, 1-(1-(3,4-dimethoxyphenyl)-8-fluoro-3,4-dihydroimidazo[1,2-a:5,4-c′]dipyridin-2(1H)-yl)-2-(naphthalen-2-yloxy)ethan-1-one] had a 50% inhibitory concentration (IC50) of 122 nM. The compound `O=C(COc1ccc2ccccc2c1)N1CCc2nc3cc(C(F)(F)F)ccn3c2C1c1ncc2ccccn12` (stereo not shown) [Example 3.43.2, 1-(1-(imidazo[1,5-a]pyridin-3-yl)-7-(trifluoromethyl)-3,4-dihydroimidazo[1,2-a:5,4-c′]dipyridin-2(1H)-yl)-2-(naphthalen-2-yloxy)ethan-1-one] gave a concentration for half-maximal inhibition (IC50) of 209 nM. Same read-out and setting: for `Cc1csc(C2c3c(nc4cc(C(F)(F)F)ccn34)CCN2C(=O)COc2ccc3ccccc3c2)n1` (stereo not shown) [Example 3.42.1, 1-(1-(4-methylthiazol-2-yl)-7-(trifluoromethyl)-3,4-dihydroimidazo[1,2-a:5,4-c′]dipyridin-2(1H)-yl)-2-(naphthalen-2-yloxy)ethan-1-one] the value was 260 nM; for `COCCOc1ccc(C2c3c(nc4ccccn34)CCN2C(=O)COc2ccc(NS(C)(=O)=O)nc2Cl)c(F)c1` (stereo not shown) [Example 1.21.2, N-(6-chloro-5-(2-(1-(2-fluoro-4-(2-methoxyethoxy)phenyl)-3,4-dihydroimidazo[1,2-a:5,4-c′]dipyridin-2(1H)-yl)-2-oxoethoxy)pyridin-2-yl)methanesulfonamide], 79 nM.

`Cc1csc(C2c3c(nc4cc(C(F)(F)F)ccn34)CCN2C(=O)COc2ccc(CN3CCOCC3)cc2Cl)n1` (stereo not shown) [Example 3.42.2, 2-(2-chloro-4-(morpholinomethyl)phenoxy)-1-(1-(4-methylthiazol-2-yl)-7-(trifluoromethyl)-3,4-dihydroimidazo[1,2-a:5,4-c′]dipyridin-2(1H)-yl)ethan-1-one] showed an IC50 of 427 nM.

As to `Cc1ccc(C2c3c(nc4cc(C(F)(F)F)ccn34)CCN2C(=O)COc2ccc(CN3CCOCC3)cc2Cl)cn1` (stereo not shown) [Example 3.38.2, 2-(2-chloro-4-(morpholinomethyl)phenoxy)-1-(1-(6-methylpyridin-3-yl)-7-(trifluoromethyl)-3,4-dihydroimidazo[1,2-a:5,4-c′]dipyridin-2(1H)-yl)ethan-1-one], the IC50 was determined as 92 nM. Still for that read-out and setting: for `CCOc1ccc(C2c3c(nc4cc(C(F)(F)F)ccn34)CCN2C(=O)COc2ccc(CN3CCOCC3)c(C)c2C)cc1` (stereo not shown) [Example 3.25.3, 2-(2,3-dimethyl-4-(morpholinomethyl)phenoxy)-1-(1-(4-ethoxyphenyl)-7-(trifluoromethyl)-3,4-dihydroimidazo[1,2-a:5,4-c′]dipyridin-2(1H)-yl)ethan-1-one] the value was 51 nM; for `COC(=O)c1ccc(OCC(=O)N2CCc3nc4ccccn4c3[C@@H]2c2ncc(Cl)cc2F)c(Cl)n1` [Example 1.14.2, methyl (R)-6-chloro-5-(2-(1-(5-chloro-3-fluoropyridin-2-yl)-3,4-dihydroimidazo[1,2-a:5,4-c′]dipyridin-2(1H)-yl)-2-oxoethoxy)picolinate], 222 nM.

`COc1ccc(C2c3c(nc4ccccn34)CCN2C(=O)COc2cccc3ccccc23)cc1OC` (stereo not shown) [Example 1.1.3, 1-(1-(3,4-dimethoxyphenyl)-3,4-dihydroimidazo[1,2-a:5,4-c′]dipyridin-2(1H)-yl)-2-(naphthalen-1-yloxy)ethan-1-one] showed an IC50 of 134 nM. Same read-out and setting: the result for `O=C(COc1ccc2ccccc2c1)N1CCc2nc3cc(C(F)(F)F)ccn3c2C1c1ccc(F)c(F)c1` (stereo not shown) [Example 3.34.1, 1-(1-(3,4-difluorophenyl)-7-(trifluoromethyl)-3,4-dihydroimidazo[1,2-a:5,4-c′]dipyridin-2(1H)-yl)-2-(naphthalen-2-yloxy)ethan-1-one] reads 486 nM; that for `Cc1cc(C2c3c(nc4cc(C(F)(F)F)ccn34)CCN2C(=O)COc2ccc3ccccc3c2)no1` (stereo not shown) [Example 3.45.1, 1-(1-(5-methylisoxazol-3-yl)-7-(trifluoromethyl)-3,4-dihydroimidazo[1,2-a:5,4-c′]dipyridin-2(1H)-yl)-2-(naphthalen-2-yloxy)ethan-1-one], 349 nM; that for `COCc1ccc(C2c3c(nc4ccccn34)CCN2C(=O)COc2ccc(C(=O)NC3CC3)nc2Cl)c(F)c1` (stereo not shown) [Example 1.18.1, 6-chloro-N-cyclopropyl-5-(2-(1-(2-fluoro-4-(methoxymethyl)phenyl)-3,4-dihydroimidazo[1,2-a:5,4-c′]dipyridin-2(1H)-yl)-2-oxoethoxy)picolinamide], 38 nM.

The experiment is the same for the next values; noted with them: Table 1; full length human TPH1, 40 μM L-tryptophan, 15° C., 60 minutes; mean if determined several times.
The compound `O=C(COc1ccc(N2CCOCC2)cc1Cl)N1CCc2nc3cc(C(F)(F)F)ccn3c2[C@H]1c1ccc(Cl)cc1F` [Example 3.4.5, ((1R)-1-(4-chloro-2-fluorophenyl)-7-(trifluoromethyl)-3,10a-dihydroimidazo[1,2-a:5,4-c′]dipyridin-2(1H)-yl)-2-(2-chloro-4-morpholinophenoxy)ethan-1-one] had an IC50 of 6 nM.

For the origin of these results see patent US20180155344A1, “TRICYCLIC PIPERIDINE COMPOUNDS” (ACTELION PHARMACEUTICALS LTD, priority 2015, published 2018).
